Earlier results on 1 substance are cited in US10258574B2, “Method of preparing itraconazole preparation” (CHANGZHOU PHARMACEUTICAL FACTORY CO., LTD., priority 2015, dated 2019).

For the data set the following is noted: rat; clinical relevance yet unclear.

2-hydroxypropyl-β-cyclodextrin: the carcinogenicity finding result is “cause pancreatic cancer”.
